Article PMC5575657, “Characterization and Expression Profiling of Camellia sinensis Cinnamate 4-hydroxylase Genes in Phenylpropanoid Pathways” (Genes, 2017)

Experiments:
Experiment in all cases: HPLC of p-coumaric acid formed in yeast culture
Format in all cases: cell-based
Settings in all cases: 0.2 mM substrate fed to yeast culture, 28 °C, 1 h; product p-coumaric acid; empty vector control
[1] = target: T1, CsC4Hb (Camellia sinensis, UniProt A0A286QXW8)
T1 construct: gene C4Hb; cloning reverse primer keeps the stop codon
T1 sequence (A0A286QXW8 1-505): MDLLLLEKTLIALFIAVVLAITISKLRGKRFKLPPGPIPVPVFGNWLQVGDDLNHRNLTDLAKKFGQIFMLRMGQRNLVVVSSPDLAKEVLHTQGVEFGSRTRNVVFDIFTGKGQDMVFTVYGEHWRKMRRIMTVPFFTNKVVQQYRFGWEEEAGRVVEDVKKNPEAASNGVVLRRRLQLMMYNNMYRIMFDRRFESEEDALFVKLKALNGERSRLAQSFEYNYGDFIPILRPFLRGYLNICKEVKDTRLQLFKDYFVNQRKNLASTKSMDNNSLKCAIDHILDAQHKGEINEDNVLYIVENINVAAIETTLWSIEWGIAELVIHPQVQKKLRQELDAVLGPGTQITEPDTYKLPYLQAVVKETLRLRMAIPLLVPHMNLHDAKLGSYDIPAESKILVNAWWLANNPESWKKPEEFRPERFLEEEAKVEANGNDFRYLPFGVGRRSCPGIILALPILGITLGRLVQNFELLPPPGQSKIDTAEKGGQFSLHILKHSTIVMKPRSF

[2] = target: T2, CsC4Hc (Camellia sinensis, UniProt A0A286QXW5)
T2 construct: gene C4Hc; cloning reverse primer keeps the stop codon
T2 sequence (A0A286QXW5 1-544): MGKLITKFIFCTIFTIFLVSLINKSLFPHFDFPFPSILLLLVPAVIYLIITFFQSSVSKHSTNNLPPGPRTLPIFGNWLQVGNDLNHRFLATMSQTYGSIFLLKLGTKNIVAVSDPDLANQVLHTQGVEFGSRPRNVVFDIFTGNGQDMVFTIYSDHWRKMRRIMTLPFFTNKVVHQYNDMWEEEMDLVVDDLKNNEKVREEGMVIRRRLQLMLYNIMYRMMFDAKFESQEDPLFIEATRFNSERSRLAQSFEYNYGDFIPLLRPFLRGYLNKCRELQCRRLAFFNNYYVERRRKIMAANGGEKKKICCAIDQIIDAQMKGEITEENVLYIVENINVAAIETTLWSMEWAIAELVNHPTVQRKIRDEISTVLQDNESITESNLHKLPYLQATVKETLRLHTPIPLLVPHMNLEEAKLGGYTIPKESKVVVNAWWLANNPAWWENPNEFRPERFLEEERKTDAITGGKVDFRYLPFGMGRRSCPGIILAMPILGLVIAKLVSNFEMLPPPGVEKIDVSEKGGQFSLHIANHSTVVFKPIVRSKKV

[3] = target: T3, CsC4Ha (Camellia sinensis, UniProt A0A286QXW9)
T3 construct: gene C4Ha; cloning reverse primer keeps the stop codon
T3 sequence (A0A286QXW9 1-505): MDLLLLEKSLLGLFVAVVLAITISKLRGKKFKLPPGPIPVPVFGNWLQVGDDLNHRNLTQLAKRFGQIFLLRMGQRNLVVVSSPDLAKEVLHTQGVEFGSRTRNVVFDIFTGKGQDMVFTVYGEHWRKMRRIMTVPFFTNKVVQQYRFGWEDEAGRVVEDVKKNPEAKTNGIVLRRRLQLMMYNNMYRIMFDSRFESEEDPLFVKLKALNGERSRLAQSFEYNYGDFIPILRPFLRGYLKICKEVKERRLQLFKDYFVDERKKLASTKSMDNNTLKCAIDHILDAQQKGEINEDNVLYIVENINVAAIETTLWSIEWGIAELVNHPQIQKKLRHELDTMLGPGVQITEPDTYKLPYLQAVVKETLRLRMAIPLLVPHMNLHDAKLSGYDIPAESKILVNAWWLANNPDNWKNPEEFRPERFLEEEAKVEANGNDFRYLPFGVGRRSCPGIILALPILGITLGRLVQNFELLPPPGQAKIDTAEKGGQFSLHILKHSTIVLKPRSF

O=C(O)/C=C/c1ccccc1 [trans-cinnamic acid]
HPLC of p-coumaric acid formed in yeast culture [1]: three recombinant CsC4Hs are able to convert t-cinnamate to yield p-coumarate when expressed in yeast
HPLC of p-coumaric acid formed in yeast culture [2]: three recombinant CsC4Hs are able to convert t-cinnamate to yield p-coumarate when expressed in yeast
HPLC of p-coumaric acid formed in yeast culture [3]: three recombinant CsC4Hs are able to convert t-cinnamate to yield p-coumarate when expressed in yeast
